Results on 22 compounds are retold here after patent US20080009435A1, “Synthetic methods for aplidine and new antitumoral derivatives, methods of making and using them” (Pharma Mar, S.A., a Spain corporation, priority 2000, published 2008).

Read-outs that look alike come from different tables or passages of the source. *1 amine or outer side, *2 acyl side, *3 side chain or, on linkers, in order; H or OH if unused. Where a SMILES comes first, the peptide text is derived from it. Bridges are numbered along the chain shown (N, C = ends). [ ]: non-standard residue; d: D form. The star is where a group is joined. ξ: configuration not given here. X2 = CC[C@H](C)[C@@H](N[*:1])[C@@H](O)CC(=O)[*:2]; X4 = CC(C)[C@H](N[*:1])C(=O)[C@H](C)C(=O)[*:2]; X3 = C[C@H](O[Si](C)(C)C(C)(C)C)C(=O)*; NMeY = CN[C@@H](Cc1ccc(O)cc1)C(=O)O; dNMeL = CN[C@H](CC(C)C)C(=O)O; Hiv = CC(C)[C@H](O)C(=O)O; Isobutyryl = CC(C)C(=O)*; dLac = C[C@@H](O)C(=O)O; Cbz = O=C(OCc1ccccc1)*; Hexanoyl = CCCCCC(=O)*; Boc = CC(C)(C)OC(=O)*; Lac = C[C@H](O)C(=O)O; Butyryl = CCCC(=O)*; ξP = O=C(O)C1CCCN1

A word on the IC50: it is the point on the concentration scale where inhibition reaches its midpoint.

Data set [1] deals with HT-29 human colon carcinoma. Kind of data set: Cytotoxicity IC50 (after Berjeron et al).
Description: (§1) Methodology: after Berjeron et al, Biochem and Bioph Res. Comm., 1984, 121, 3, 848-854.
(§2) P388=Murine lymphoma. A549=human lung carcinoma. HT-29=human colon carcinoma. MEL-28=human melanoma.
(§3) A549=human lung carcinoma. HT-29=human colon carcinoma. MEL-28=human melanoma.
The subject of data set [2] is A549 human lung carcinoma. Kind of data set: Cytotoxicity IC50 (after Berjeron et al).
Description: as §1, §2, §3
Setting [3] is: Homo sapiens, HT-29, read-out: Cytotoxicity of aplidine derivatives IC50 (Molar) HT29.
Where [4] appears, read: Homo sapiens, A549, read-out: Cytotoxicity of aplidine derivatives IC50 (Molar) A549.
Setting [5] is: read-out: Cytotoxicity of aplidine derivatives IC50 (Molar) HT29, HT29.
[6] abbreviates: read-out: Cytotoxicity of aplidine derivatives IC50 (Molar) A549, A549.

Consider `CC[C@H](C)[C@H]1NC(=O)[C@@H](NC(=O)[C@@H](CC(C)C)N(C)C(=O)[C@@H]2CCCN2C(=O)OC(C)(C)C)[C@@H](C)OC(=O)[C@H](Cc2ccc(OC)cc2)N(C)C(=O)[C@@H]2CCCN2C(=O)[C@H](CC(C)C)NC(=O)[C@H](C(C)C)OC(=O)C[C@@H]1O` [8PSHPL2, [Hiv]^3-[Boc-Pro]^8-didemnin A] (Boc-P[dNMeL]T[X2][Hiv]LP[NMeY](Me); ester 3-C), for which the IC50 in data set [1] (setting [3]) and in data set [2] (setting [4]) was 0.922 nM each time.

On to `CC[C@H](C)[C@H]1NC(=O)[C@@H](NC(=O)[C@@H](CC(C)C)N(C)C(=O)C(C)C)[C@@H](C)OC(=O)[C@H](Cc2ccc(OC)cc2)N(C)C(=O)[C@@H]2CCCN2C(=O)[C@H](CC(C)C)NC(=O)[C@H](C(C)C)OC(=O)C[C@@H]1O` [8ISHPL1, [Hiv]^3-[isobutyryl]^8-didemnin A] (Isobutyryl-[dNMeL]T[X2][Hiv]LP[NMeY](Me); ester 2-C), for which the IC50 in data set [1] (setting [3]) and in data set [2] (setting [4]) was 0.522 nM in each case.

Consider `CC[C@H](C)[C@H]1NC(=O)[C@@H](NC(=O)[C@@H](CC(C)C)N2CC[C@]3(CCCN3C(=O)OC(C)(C)C)C2=O)[C@@H](C)OC(=O)[C@H](Cc2ccc(OC)cc2)N(C)C(=O)[C@@H]2CCCN2C(=O)[C@H](CC(C)C)NC(=O)[C@@H](C)C(=O)[C@H](C(C)C)OC(=O)C[C@@H]1O` [9SBSAPL1, [(5R)-1-(tert-buthoxycarbonyl)-7-[(1R)-1-carboxy-3-methylbutyl]-6-oxo-1,7-diazaspiro[4,4]nonane]^7-9-aplidine], for which the IC50 in data set [1] (setting [3]) and in data set [2] (setting [4]) was 8.68 nM in each case.

In the case of `CCCCNC(=S)N(C)[C@H](CC(C)C)C(=O)N[C@@H]1C(=O)N[C@H]([C@@H](C)CC)[C@@H](O)CC(=O)O[C@@H](C(C)C)C(=O)[C@H](C)C(=O)N[C@@H](CC(C)C)C(=O)N2CCC[C@H]2C(=O)N(C)[C@@H](Cc2ccc(OC)cc2)C(=O)O[C@@H]1C` [8BTSAPL1, [Butylthiourea]^8-didemnin A], the IC50 in data set [1] (setting [3]) and in data set [2] (setting [4]) was 0.945 nM in each case.

Regarding `CC[C@H](C)[C@H]1NC(=O)[C@@H](NC(=O)[C@@H](CC(C)C)N(C)C(=O)C2CCCN2C(=O)[C@H](C)O)[C@@H](C)OC(=O)[C@H](Cc2ccc(OC)cc2)N(C)C(=O)[C@@H]2CCCN2C(=O)[C@H](CC(C)C)NC(=O)[C@H](C(C)C)NC(=O)C[C@@H]1O` (stereo partly drawn) [9LSVPL1(L), [Val]^3-[L-Lac]^9-aplidine] (H-[Lac][ξP][dNMeL]T[X2]VLP[NMeY](Me); ester 4-C), the IC50 in data set [1] (setting [3]) and in data set [2] (setting [4]) was 0.948 nM in each case.

Take `CC[C@H](C)[C@H]1NC(=O)[C@@H](NC(=O)[C@@H](CC(C)C)N(C)C(=O)C2CCCN2C(=O)[C@H](C)O[Si](C)(C)C(C)(C)C)[C@@H](C)OC(=O)[C@H](Cc2ccc(OC)cc2)N(C)C(=O)[C@@H]2CCCN2C(=O)[C@H](CC(C)C)NC(=O)[C@H](C(C)C)NC(=O)C[C@@H]1O` (stereo partly drawn) [9LSVPL2(L), [Val]^3-[L-Lac(OTBDMS)]^9-aplidine] (X3-[ξP][dNMeL]T[X2]VLP[NMeY](Me); ester 3-C): the IC50 in data set [1] (setting [3]) was determined as 8.55 nM; in data set [2] (setting [4]) it was 10.2 nM.

Turning to `CC[C@H](C)[C@H]1NC(=O)[C@@H](NC(=O)[C@@H](CC(C)C)N(C)C(=O)C2CCCN2C(=O)[C@@H](C)O)[C@@H](C)OC(=O)[C@H](Cc2ccc(OC)cc2)N(C)C(=O)[C@@H]2CCCN2C(=O)[C@H](CC(C)C)NC(=O)[C@H](C(C)C)OC(=O)C[C@@H]1O` (stereo partly drawn) [9LSHPL1(D), [Hiv]^3-[D-Lac]^9-aplidine] (H-[dLac][ξP][dNMeL]T[X2][Hiv]LP[NMeY](Me); ester 4-C), the half-maximal inhibitory concentration (IC50) in data set [1] (setting [3]) and in data set [2] (setting [4]) was 0.947 nM in each case.

`CCCCCC(=O)N(C)[C@H](CC(C)C)C(=O)N[C@@H]1C(=O)N[C@H]([C@@H](C)CC)[C@@H](O)CC(=O)O[C@@H](C(C)C)C(=O)N[C@@H](CC(C)C)C(=O)N2CCC[C@H]2C(=O)N(C)[C@@H](Cc2ccc(OC)cc2)C(=O)O[C@@H]1C` [8HSHPL1, [Hiv]^3-[hexanoyl]^8-didemnin A] (Hexanoyl-[dNMeL]T[X2][Hiv]LP[NMeY](Me); ester 2-C): the IC50 in data set [1] (setting [3]) and in data set [2] (setting [4]) was 10.1 nM throughout.

`CCCC(=O)N(C)[C@H](CC(C)C)C(=O)N[C@@H]1C(=O)N[C@H]([C@@H](C)CC)[C@@H](O)CC(=O)O[C@@H](C(C)C)C(=O)N[C@@H](CC(C)C)C(=O)N2CCC[C@H]2C(=O)N(C)[C@@H](Cc2ccc(OC)cc2)C(=O)O[C@@H]1C` [8BSHPL1, [Hiv]^3-[Butyryl]^8-didemnin A] (Butyryl-[dNMeL]T[X2][Hiv]LP[NMeY](Me); ester 2-C): the IC50 in data set [1] (setting [3]) and in data set [2] (setting [4]) was 1.04 nM in each case.

As for `CC[C@H](C)[C@H]1NC(=O)[C@@H](NC(=O)[C@@H](CC(C)C)N(C)C(=O)[C@@H]2CCCN2C(=O)C(C)C)[C@@H](C)OC(=O)[C@H](Cc2ccc(OC)cc2)N(C)C(=O)[C@@H]2CCCN2C(=O)[C@H](CC(C)C)NC(=O)[C@H](C(C)C)NC(=O)C[C@@H]1O` [9ISVPL1, [Val]^3-[Isobutyryl]^9-aplidine] (Isobutyryl-P[dNMeL]T[X2]VLP[NMeY](Me); ester 3-C), the IC50 in data set [1] (setting [3]) and in data set [2] (setting [4]) was 0.475 nM each time.

For the compound `CC[C@H](C)[C@H]1NC(=O)[C@@H](NC(=O)[C@@H](CC(C)C)N2CC[C@]3(CCCN3C(=O)OC(C)(C)C)C2=O)[C@@H](C)OC(=O)[C@H](Cc2ccc(OC)cc2)N(C)C(=O)[C@@H]2CCCN2C(=O)[C@H](CC(C)C)NC(=O)[C@H](C(C)C)OC(=O)C[C@@H]1O` [9SBSHPL1], the IC50 in data set [1] (setting [3]) and in data set [2] (setting [4]) was 4.56 nM each time.

In the case of “[Hiv]^3-[D-Lac(OTBDMS)]^9-aplidine [9LSHPL2(D)]”, the IC50 in data set [1] (setting [5]) and in data set [2] (setting [6]) was 85.5 nM in each case.

With `CC[C@H](C)[C@H]1NC(=O)[C@@H](NC(=O)[C@@H](CC(C)C)N2CC[C@]3(CCCN3C(=O)C(C)C)C2=O)[C@@H](C)OC(=O)[C@H](Cc2ccc(OC)cc2)N(C)C(=O)[C@@H]2CCCN2C(=O)[C@H](CC(C)C)NC(=O)[C@H](C(C)C)OC(=O)C[C@@H]1O` [9SISHPL1, [Hiv]^3-[(5R)-1-(tert-buthoxycarbonyl)-7-[(1R)-1-carboxy-3-methylbutyl]-6-oxo-1,7-diazaspiro[4,4]nonane]^7-9-aplidine], the IC50 in data set [1] (setting [3]) and in data set [2] (setting [4]) was 93.8 nM throughout.

For “[Gly]^8-[coumarin]^9-didemnin A [8G9CSAPL1]”, the IC50 in data set [1] (setting [5]) and in data set [2] (setting [6]) was 4.26 nM throughout.

For `CC[C@H](C)[C@H]1NC(=O)[C@@H](NC(=O)[C@@H](CC(C)C)N(C)C(=O)[C@@H](N)C(C)C)[C@@H](C)OC(=O)[C@H](Cc2ccc(OC)cc2)N(C)C(=O)[C@@H]2CCCN2C(=O)[C@H](CC(C)C)NC(=O)[C@H](C(C)C)OC(=O)C[C@@H]1O` [8VSHPL1, [Hiv]^3-[Val]^8-didemnin A] (H-V[dNMeL]T[X2][Hiv]LP[NMeY](Me); ester 3-C), the IC50 in data set [1] (setting [3]) and in data set [2] (setting [4]) was 1.01 nM each time.

On to `CC[C@H](C)[C@H]1NC(=O)[C@@H](NC(=O)[C@@H](CC(C)C)N(C)C(=O)OCc2ccccc2)[C@@H](C)OC(=O)[C@H](Cc2ccc(OC)cc2)N(C)C(=O)[C@@H]2CCCN2C(=O)[C@H](CC(C)C)NC(=O)[C@@H](C)C(=O)[C@H](C(C)C)NC(=O)C[C@@H]1O` [SNPL3, [Aip]^3 Z-Didemnin A] (Cbz-[dNMeL]T[X2][X4]LP[NMeY](Me); ester 2-C), for which the IC50 in data set [1] (setting [3]) and in data set [2] (setting [4]) was 0.0929 nM in each case.

For `C=C(C)C(=O)N1CCC[C@]12CCN([C@H](CC(C)C)C(=O)N[C@@H]1C(=O)N[C@H]([C@@H](C)CC)[C@@H](O)CC(=O)O[C@@H](C(C)C)C(=O)N[C@@H](CC(C)C)C(=O)N3CCC[C@H]3C(=O)N(C)[C@@H](Cc3ccc(OC)cc3)C(=O)O[C@@H]1C)C2=O` [9SASHPL1], the IC50 in data set [1] (setting [3]) and in data set [2] (setting [4]) was 93.9 nM throughout.

`CC[C@H](C)[C@H]1NC(=O)[C@@H](NC(=O)[C@@H](CC(C)C)N(C)C(=O)C2CCCN2C(=O)[C@H](C)O)[C@@H](C)OC(=O)[C@H](Cc2ccc(OC)cc2)N(C)C(=O)[C@@H]2CCCN2C(=O)[C@H](CC(C)C)NC(=O)[C@H](C(C)C)OC(=O)C[C@@H]1O` (stereo partly drawn) [9LSHPL1(L), [Hiv]^3-[L-Lac]^9-aplidine, reference compound] (H-[Lac][ξP][dNMeL]T[X2][Hiv]LP[NMeY](Me); ester 4-C): the IC50 in data set [1] (setting [3]) and in data set [2] (setting [4]) was 0.947 nM each time.

Regarding `CC[C@H](C)[C@H]1NC(=O)[C@@H](NC(=O)[C@@H](CC(C)C)N(C)C(=O)[C@@H](NC(=O)OC(C)(C)C)C(C)C)[C@@H](C)OC(=O)[C@H](Cc2ccc(OC)cc2)N(C)C(=O)[C@@H]2CCCN2C(=O)[C@H](CC(C)C)NC(=O)[C@H](C(C)C)OC(=O)C[C@@H]1O` [8VSHPL2, [Hiv]^3-[Boc-Val]^8-didemnin A] (Boc-V[dNMeL]T[X2][Hiv]LP[NMeY](Me); ester 3-C), the IC50 in data set [1] (setting [3]) and in data set [2] (setting [4]) was 9.21 nM throughout.

Take `CC[C@H](C)[C@H]1NC(=O)[C@@H](NC(=O)[C@@H](CC(C)C)N(C)C(=O)C2CCCN2C(=O)[C@H](C)O[Si](C)(C)C(C)(C)C)[C@@H](C)OC(=O)[C@H](Cc2ccc(OC)cc2)N(C)C(=O)[C@@H]2CCCN2C(=O)[C@H](CC(C)C)NC(=O)[C@H](C(C)C)OC(=O)C[C@@H]1O` (stereo partly drawn) [9LSHPL2(L), [Hiv]^3-[L-Lac(OTBDMS)]^9-aplidine] (X3-[ξP][dNMeL]T[X2][Hiv]LP[NMeY](Me); ester 3-C): the IC50 in data set [1] (setting [3]) and in data set [2] (setting [4]) was 8.55 nM in each case.

In the case of `CC[C@H](C)[C@H]1NC(=O)[C@@H](NC(=O)[C@@H](CC(C)C)N(C)C(=O)C(C)C)[C@@H](C)OC(=O)[C@H](Cc2ccc(OC)cc2)N(C)C(=O)[C@@H]2CCCN2C(=O)[C@H](CC(C)C)NC(=O)[C@H](C(C)C)NC(=O)C[C@@H]1O` [8ISVPL1, [Val]^3-[Isobutyryl]^8-didemnin A] (Isobutyryl-[dNMeL]T[X2]VLP[NMeY](Me); ester 2-C), the IC50 in data set [1] (setting [3]) and in data set [2] (setting [4]) was 0.105 nM throughout.

Turning to [Hiv]^3-[Ala]^9 aplidine [9ASHPL1], the IC50 in data set [1] (setting [5]) and in data set [2] (setting [6]) was 0.916 nM in each case.
